The text below walks through data of paper PMC7688903 (Frontiers in Microbiology, 2020).

The subject of one series is E. coli ATCC 25922. In kind it is cell-based, Escherichia coli. Particulars: ATCC 25922, 20 h. A digest of the protocol:
(§1)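 Inocula were set to 0.5 McFarland and diluted to ~5 × 10^5 CFU/mL (bacteria, MH broth) or 0.5 × 10^3 to 2.5 × 10^3 CFU/mL (yeast, RPMI 1640). Peptide twofold dilutions were added, plates incubated 20 h at 37°C or 48 h at 35°C, then scored by eye.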

Another series relates to P. aeruginosa ATCC 27853. It is filed as cell-based, Pseudomonas aeruginosa. Particulars: ATCC 27853, 20 h. A digest of the protocol:
as §1

Series [1] concerns carbapenem-resistant P. aeruginosa (CRPA) SIPI-012. In kind it is cell-based, Pseudomonas aeruginosa. Particulars: carbapenem-resistant (CRPA) SIPI-012, 20 h. A digest of the protocol:
as §1

The next series relates to A. baumannii ATCC 19606. In kind it is cell-based, Acinetobacter baumannii. Particulars: ATCC 19606, 20 h. In short, it runs like this: as §1
For series [2], the system named is carbapenem-resistant A. baumannii (CRAB) SIPI-025. In kind it is cell-based, Acinetobacter baumannii. Particulars: carbapenem-resistant (CRAB) SIPI-025, 20 h. A digest of the protocol: as §1
In a further series the test system is S. aureus ATCC 25923. In words: microbe, parasite or virus in culture. It is filed as cell-based, Staphylococcus aureus. Particulars: ATCC 25923, 20 h. In short, it runs like this: as §1
A further series concerns human erythrocytes. In words: Hemolytic activity assay. It is filed as cell-based. Particulars: human RBC in PB, 37°C, 1 h, OD420, total lysis control 0.1% SDS, three technical replicates. A digest of the protocol:
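Washed RBCs from a healthy volunteer were incubated with peptides at 32–128 μM for 1 h at 37°C in PB. Hemoglobin release into the supernatant was read as OD420 against total lysis with 0.1% SDS, in three technical replicates.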

Another series relates to RAW 264.7 cells. Description: Cell viability assay (MTT). In kind it is cell-based, mouse. Particulars: 1–128 μM peptide in DMEM with 4% FBS, 42 h, 595 nm, triplicate. In short, it runs like this: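 RAW 264.7 cells (1 × 10^4/well, DMEM + 10% FBS) grown overnight to 80% confluency, then exposed to peptides at 1–128 μM in DMEM with 4% FBS for 42 h at 37 °C. MTT read at 595 nm; viability relative to medium-only controls, triplicate, IC50 as 50% loss of viability.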

The next series deals with BALB/c mice. In words: In vivo acute toxicity, single injection. On the set-up: species or system mouse. Particulars: monitored 24 h. On the procedure:
Six-week-old mice (approximate weight: 18–20 g, SFP grade) were bred and maintained under specific pathogen-free conditions on a 12 h light/dark cycle. The peptides were dissolved in PBS (pH 7.4) and three mice were used for each dose. As a control, colistin was administered in a similar manner. The mice were monitored for 24 h and mice were weighed at the end of the experiment. The procedure was evaluated and approved by the Ethical Committee of Experimental Animals of the Chia Tai Tianqing Pharmaceutical Group in August 2019.
As summarized in Figure 6, a toxicity score was assigned as follows: no abnormalities = without signs; mild depression, poor motility, purple-black tail, and recovery in 1 h = mild signs; serious depression and poor motility even under stimulation = manifest signs; sudden death within 10 min = died of toxic effects.

The next series deals with human plasma proteases. In words: in vitro.

Values after ≈ are worked out from the molar mass of the structure shown. Where a SMILES comes first, the peptide text is derived from it. [ ]: non-standard residue; d: D form. 2Thi = N[C@@H](Cc1cccs1)C(=O)O; Aib = CC(C)(N)C(=O)O

What is called IC50 is the concentration that inhibits the measured activity by half. Read a high IC50 as lower potency. Broadly, the share remaining is the share of the starting amount still present when the sample was taken. A higher share remaining goes with less turnover. With `CC(C)C[C@H](NC(=O)[C@H](CC(C)C)NC(=O)[C@@H](CCCCN)NC(=O)[C@@H](CCCCN)NC(=O)[C@H](Cc1ccccc1)NC(=O)[C@H](CC(C)C)NC(=O)[C@@H](CCCNC(=N)N)NC(=O)[C@H](N)CCCCN)C(=O)N[C@H](CCCCN)C(=O)N[C@@H](Cc1ccc(O)cc1)C(=O)N[C@@H](CC(C)C)C(=O)N[C@H](CCCNC(=N)N)C(=O)N[C@H](CCCCN)C(=O)N[C@@H](Cc1ccccc1)C(N)=O` [DP06] (H-[dK][dR]LF[dK][dK]LL[dK]YL[dR][dK]F-NH2), the MIC in the series with E. coli ATCC 25922 came to 1 µg/mL (≈ 0.532 µM); with P. aeruginosa ATCC 27853, 1 µg/mL (≈ 0.532 µM); in [1], 8 µg/mL (≈ 4.25 µM); against A. baumannii ATCC 19606, 1 µg/mL (≈ 0.532 µM); in series [2], 2 µg/mL (≈ 1.06 µM); with S. aureus ATCC 25923 it was 0.5 µg/mL (≈ 0.266 µM). Moreover, the “Hemolysis rate (%)” value stood at 37.14 ± 2.73% in the series on human erythrocytes (64 μM) and 59.99 ± 2.41% in the series on human erythrocytes (128 μM). In the series with RAW 264.7 cells, this molecule yielded an IC50 of 48.8 ± 6.97 µM. The “signs of toxicity after intravenous injection” value is listed as “sudden death within 1 min of injection” in the series on BALB/c mice (single i.v. dose 5 mg/kg, three mice) and “sudden death within 1 min of injection” in the series on BALB/c mice (single i.v. dose 10 mg/kg, three mice). The amount remaining at 8 h, 0.1 mg/mL in the series on human plasma proteases is over 90%. In the series on human plasma proteases, this molecule displayed an amount remaining at 24 h, 0.1 mg/mL of over 60%.
In the case of `CC(C)C[C@H](NC(=O)[C@H](Cc1ccc(O)cc1)NC(=O)[C@H](CCCCN)NC(=O)[C@H](CC(C)C)NC(=O)[C@H](CC(C)C)NC(=O)[C@H](CCCCN)NC(=O)[C@H](CCCCN)NC(=O)[C@H](Cc1ccccc1)NC(=O)[C@H](CC(C)C)NC(=O)[C@H](CCCNC(=N)N)NC(=O)C(C)(C)N)C(=O)N[C@@H](CCCNC(=N)N)C(=O)N[C@@H](CCCCN)C(=O)N[C@@H](Cc1cccs1)C(N)=O` [UP09] (H-[Aib]RLFKKLLKYLRK[2Thi]-NH2; N-terminus assumed), the MIC with E. coli ATCC 25922 worked out at 2 µg/mL (≈ 1.08 µM); in the series with P. aeruginosa ATCC 27853, 2 µg/mL (≈ 1.08 µM); in [1], 4 µg/mL (≈ 2.17 µM); in the series on A. baumannii ATCC 19606 it was 2 µg/mL (≈ 1.08 µM); in [2], 2 µg/mL (≈ 1.08 µM); with S. aureus ATCC 25923, 1 µg/mL (≈ 0.542 µM). Further, the “Hemolysis rate (%)” value with human erythrocytes (64 μM) stood at 55.99 ± 3.75 %; with human erythrocytes (128 μM), 95.99 ± 2.10 %. Further, the IC50 with RAW 264.7 cells came out at 26.2 ± 1.8 µM. In addition, the “signs of toxicity after intravenous injection” value in the series on BALB/c mice (single i.v. dose, all tested doses (5, 10, 20 mg/kg), three mice per dose) is “Mild depression and purple-black tails”. The share remaining at 12 h, 0.1 mg/mL in the series on human plasma proteases is over 50%. Also, the share remaining at 24 h, 0.1 mg/mL in the series with human plasma proteases was over 30%.
